This is an account of results in paper PMC7822874, “Chemoprotective antimalarials identified through quantitative high-throughput screening of Plasmodium blood and liver stage parasites” (Scientific Reports, 2021).

Where “and” joins values, the source holds several entries; their conditions need not be identical. Equal entries are not always repeated.

One data set in a line: in vitro. Conditions: human, HepG2 cells; n = 1.
For data set [1], the system named is P. falciparum Dd2 (clone B2) asexual blood stage parasites. Kind of data set: P. falciparum Dd2 asexual blood stage SYBR Green-I 72 h proliferation assay (qHTS). The class given is cell-based, Plasmodium falciparum. To be noted: Plasmodium falciparum, DD2, Dd2 parental; Hill fit, averaged from three independent replicates; top concentration 29 µM; read-out: Average AC50 (Log[M]), Dd2 (converted). On the technique in general: Quantitative high-throughput screening tests each substance at several concentrations.

Data set [2] deals with P. falciparum Dd2 Cytb G131S. Kind of data set: SYBR Green ABS proliferation assay, NCGC00374598 selected clone C11. The class given is cell-based, Plasmodium falciparum. Conditions: Plasmodium falciparum, DD2, […]; averaged from three independent replicates; top concentration 29 µM; read-out: Average AC50 (Log[M]), NCGC00374598 clone C11 (Cytb G131S) (converted). An outline of the steps: (§1)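 72 h SYBR Green-I read; % response = relative growth vs controls. Clones from resistance selection, cloned by limiting dilution; 37 °C, 5% CO2/5% O2/90% N2.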

The test system of data set [3] is P. falciparum Dd2 Cytb V259L. Description: SYBR Green ABS proliferation assay, NCGC00473217 selected clone F06. The class given is cell-based, Plasmodium falciparum. Conditions: Plasmodium falciparum, DD2, […]; averaged from three independent replicates; top concentration 29 µM; read-out: Average AC50 (Log[M]), NCGC00473217 clone F06 (Cytb V259L) (converted). An outline of the steps:
as §1

The test system of data set [4] is P. falciparum Dd2 Cytb A122D. Description: SYBR Green ABS proliferation assay, NCGC00473217 selected clone F12. Conditions: Plasmodium falciparum, DD2, […]; averaged from three independent replicates; top concentration 29 µM; read-out: Average AC50 (Log[M]), NCGC00473217 clone F12 (Cytb A122D) (converted). The data set is classed as cell-based, Plasmodium falciparum. Summed up:
as §1

Data set [5] concerns P. falciparum Dd2 Cytb F123L. Description: SYBR Green ABS proliferation assay, NCGC00473217 selected clone G08. To be noted: Plasmodium falciparum, DD2, […]; averaged from three independent replicates; top concentration 29 µM; read-out: Average AC50 (Log[M]), NCGC00473217 clone G08 (Cytb F123L) (converted). The class given is cell-based, Plasmodium falciparum. Summed up:
as §1

The test system of data set [6] is T1, Plasmodium falciparum Dd2-attB (parental line), asexual blood stages.
T1 construct: Dd2-attB, the isogenic parental line
Kind of data set: microbe, parasite or virus in culture. On the set-up: replicate k of 3 (each line is one of three independent assays; the three lines of one compound and parasite line follow each other). To be noted: 72 h; n = 1. Summed up: (§2)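 Three independent runs, compound subset only; parental vs ScDHODH line compared by two-sided Student's t-test.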

In data set [7] the test system is T2, Plasmodium falciparum Dd2-attB-ScDHODH (transgenic line expressing yeast DHODH), asexual blood stages.
T2 construct: Dd2-attB-ScDHODH, the transgenic line that expresses yeast DHODH
Description: organism not typed. The arrangement: replicate k of 3 (each line is one of three independent assays; the three lines of one compound and parasite line follow each other). Conditions: 72 h, n = 1. An outline of the steps: as §2

In general, CC50 refers to the concentration that lowers cell viability or growth by half. A lower CC50 goes with greater toxicity to the cells. For the compound `CC1=CC(=CNNC(=O)c2n[nH]cc2Br)C(=O)C=C1` [MLS000555044-01], the midpoint of cytotoxicity in the data set “in vitro”, the CC50 at 48 h, lay at 19.3 µM.
The compound `O=C1C=CC(Cl)=CC1=CNNC(=O)c1ccncc1` [MLS000766661-01] showed a 50% cytotoxic concentration (CC50) at 48 h in “in vitro” of 12.2 µM.
`CC(C)c1cccc(NC(=O)c2ccc(CN3C(=O)NC4(CCOCC4)C3=O)cc2)c1` [NCGC00454607-01] yielded a CC50 at 48 h in “in vitro” of 24.3 µM.
On the same count and under the same terms, as for `CCCOc1ccc(C(=O)Nc2ccc(-c3cc4ccccc4oc3=O)c(C)c2)cc1` [NCGC00098245-01], the figure is 24.3 µM.
As for `COC1=CC=CC(=CNNc2cc(N3CCOCC3)ncn2)C1=O` [MLS001202693-01], the midpoint of cytotoxicity in the data set “in vitro”, the CC50 at 48 h, lay at 12.2 µM.
On the same count and under the same terms, for `c1csc(-c2cn3ccc4ccccc4c3n2)c1` [MLS000711806-01] the value was 15.3 µM; for `Cc1nn2c(NCc3ccccn3)cc(C(C)C)nc2c1-c1ccccc1` [MLS000762881-01], 12.2 µM.
As for `COc1cc(C(=O)N/N=C(/c2ccccc2)c2ccccn2)cc(OC)c1OC` [MLS000390992-01], the midpoint of cytotoxicity in the data set “in vitro”, the CC50 at 48 h, lay at 10.9 µM.
Same read-out and setting: for `Cc1cc(Cl)ccc1-c1ccc(CNC2CN(C(=O)OC(C)(C)C)C2)cc1` [NCGC00374248-01] the value was 34.3 µM; for `CCn1c(C)nc2cc(-c3nc4n(n3)Cc3ccccc3-4)ccc21` [MLS000054270-01], 12.2 µM; for `CCCCC(=O)NC(c1cccs1)c1cc(Cl)c2cccnc2c1O` (stereo not shown) [MLS000714525-01], 13.7 µM.
For `CC(=O)NC(c1ccccc1)c1cc(Cl)c2cccnc2c1O` (stereo not shown) [MLS001210949-01], half-maximal cytotoxicity in the data set “in vitro” (CC50 at 48 h) was put at 12.2 µM.
For `CCc1ccc(NC(=O)N2CC(C(=O)N(C)C)C3(CCOCC3)C2)cc1` (stereo not shown) [NCGC00471776-01], the midpoint of cytotoxicity in the data set “in vitro”, the CC50 at 48 h, lay at 0.00769 µM.
Same read-out and setting: for `COCCN1Cc2ccc(NCC(C)C)nc2C(C)(C(=O)Nc2cccc(F)c2)C1` (stereo not shown) [NCGC00414615-01] the value was 35.3 µM.
For orientation: AC50 means the midpoint of the concentration-response curve, whichever way the signal moves. As for `CCCN1C(CC(C)C)=N[S+](=O)([O-])c2cc(NC(=O)C3CCN(C)CC3)ccc21` [NCGC00521111-01], the concentration at half-maximal activity (AC50) in data set [1] is 2.08e-05 M; in data set [2], 1.17e-06 M; in data set [3], 1.53e-05 M; in data set [4], 3.77e-07 M; in data set [5], 1.22e-05 M.
Compound `CC(NNC(=O)C12CCC(C)(C(=O)O1)C2(C)C)=C1C=CC=CC1=O` (stereo not shown) [MLS000778293-01] yielded a CC50 at 48 h in the data set “in vitro” of 12.2 µM.
On the same count and under the same terms, as for `COc1cc(OC)cc(C(=O)Oc2c(CN3CCOCC3)cc(Cl)c3cccnc23)c1` [MLS000770997-01], the figure is 12.2 µM.
Turning to `CCCN1C(CC(C)C)=N[S+](=O)([O-])c2cc(NC(=O)c3ccc(-c4ccccc4)s3)ccc21` [NCGC00521113-01], the AC50 is 5.02e-06 M in data set [1]; 1.68e-06 M in data set [2]; 1.42e-06 M in data set [3]; 5.02e-06 M in data set [4]; 2.24e-06 M in data set [5].
In the data set “in vitro”, `CC(C)c1cc(C(=O)NC2CCN(c3ncccc3C#N)CC2)n(C)n1` [NCGC00431169-01] came in with a cytotoxic concentration (CC50) at 48 h of 19.3 µM.
Consider `CCCN1C(CC(C)C)=N[S+](=O)([O-])c2cc(NC(=O)c3ccco3)ccc21` [NCGC00473219-02], for which the concentration at half-maximal activity (AC50) in data set [1] is 3.17e-06 M; in data set [2], 3.17e-06 M; in data set [3], 5.22e-06 M; in data set [4], 3.56e-06 M; in data set [5] it was 3.17e-06 M. For the same compound, the “Individual replicates / Log AC50 (M)” value was -6.2986 Log AC50 (M) and -5.9986 Log AC50 (M) and -6.0986 Log AC50 (M) in data set [6]; -5.7486 Log AC50 (M) and -5.5986 Log AC50 (M) and -5.8986 Log AC50 (M) in data set [7].
Consider `O=C(Cc1ccccc1F)N1CC(Oc2ccc(-c3noc(-c4cccnc4)n3)cc2)C1` [NCGC00458031-01], for which half-maximal cytotoxicity in “in vitro” (CC50 at 48 h) was put at 19.3 µM.
As to `CCCN1C(CC(C)C)=N[S+](=O)([O-])c2cc(NC(=O)c3ccc(F)cc3F)ccc21` [NCGC00523543-01], the AC50 in data set [1] was 3.99e-06 M; in data set [2] it was 2e-06 M; in data set [3] it was 3.36e-06 M; in data set [4], 1.93e-06 M; in data set [5], 3.56e-07 M.
`Cc1cc(NCc2ccccn2)n2nc(C)c(-c3ccc(Cl)cc3)c2n1` [MLS000559839-01] registered a CC50 at 48 h in “in vitro” of 9.68 µM.
`CCCN1C(CC(C)C)=N[S+](=O)([O-])c2cc(NC(=O)c3c(Cl)cnn3C)ccc21` [NCGC00521056-01]: the half-maximal activity concentration (AC50) is 1.65e-05 M in data set [1]; 1.12e-05 M in data set [2]; 8.61e-06 M in data set [3]; 6.32e-06 M in data set [4]; 1.22e-05 M in data set [5].
